Reference: patent US9617262B2, “Antibacterial cyclopental[C]pyrrole substituted 3,4-dihydro-1H-[1,8]naphthyridinones” (Janssen Sciences Ireland UC, priority 2011, dated 2017)

Columns and labels:
[1] = molecular target: S. aureus ATCC 29213 FabI (Staphylococcus aureus (strain MRSA252), UniProt Q6GI75); experiment: Staphylococcus aureus FabI enzyme inhibition assay; assay type: biochemical; details: pH 6.5, 30 minutes at room temperature
Protocol: FabI enzyme inhibition assays were carried out in half-area, 384-well microtitre plates. Compounds were evaluated in 40-μl assay mixtures containing 100 mM NaADA, pH 6.5 (ADA=N-[2-acetamido]-2iminodiacetic acid), 250 μM crotonoyl-CoA, 625 μM NADH and 50 μg/ml S. aureus ATCC 29213 FabI. Inhibitors were typically varied over the range of 50 to 0.39 μM. The reaction mixtures were incubated for 30 minutes at room temperature and the reaction was stopped by adding 200 mM Tris buffer (pH 9.0) to create a pH-shift. The consumption of NADH was monitored by measuring the change in absorbance at […]. By comparing sample readings to those of negative (absence of compound) and positive (absence of enzyme) controls, the percent inhibition of enzymatic activity of the compounds was determined. A best-fit curve is fitted by a minimum of squares method. From this an IC50-value (expressed in μg/ml), resulting in 50% inhibition of enzymatic activity, was obtained.

[2] = system: Staphylococcus aureus ATCC 29213; experiment: Antibacterial susceptibility testing: IC90 determination (STA); assay type: cell-based; details: STA ATCC 29213, 90% inhibitory concentration for bacterial growth
Protocol: (§1) The following bacteria were used: Staphylococcus aureus ATCC 29213, methicillin-resistant Staphylococcus aureus (MRSA) ATCC 700788 and Escherichia coli ATCC 35218. The bacteria used in this study were grown overnight in flasks containing 100 ml Mueller-Hinton broth (Difco cat. nr. 0757-17) in sterile de-ionized water, with shaking, at 37° C. Stocks were store at −70° C. until use.
(§2) Bacteria were incubated on a tryptic soy agar plate containing 5% sheep blood (Becton Dickinson cat. nr. 254053) for 18-24 hours at 35° C. in aerobic conditions (first passage). For the second passage, fresh Mueller-Hinton broth is inoculated with 5-10 colonies and grown overnight at 35° C. until turbidity (reaching log-phase) in aerobic conditions is reached. The bacterial suspension is then adjusted to 0.5 McFarland density and further diluted 1:100 in Mueller Hinton broth medium. This is used as inoculum.
(§3) MIC assays were performed by the broth microdilution method in a 96-well format (flat-bottom microtitre plates) with a final volume of 0.1 ml Mueller Hinton broth containing two-fold serial dilutions of compounds and inoculated with 5×10^5 CFU/ml of bacteria (standard inoculum size according to CLSI guidelines). Inhibitors are typically varied over the range of 63 to 0.49 μM. The final DMSO concentration in the assay was 1.25% (maximum tolerable DMSO concentration=6%). In the assays where the effect of human serum on the activity of the compounds against S. aureus was tested, human serum was added at a final concentration of 10%. The plates were incubated at 35° C. for 16-20 hours. At the end of incubation the bacterial growth was quantified fluorometrically. For this, resazurin was added to all wells and the plates were re-incubated. The incubation time is dependent on the type of bacteria. A change in color from blue to pink indicated the growth of bacteria. The fluorescence was read in computer-controlled fluorometer (Fluoroskan Ascent FL, Labsystems) at an excitation wavelength 540 nm and an emission wavelength of 590 nm. The % growth inhibition achieved by the compounds was calculated according to standard methods. The IC90 (expressed in μg/ml) was defined as the 90% inhibitory concentration for bacterial growth. A panel of reference compounds were simultaneously tested for QC approval.

[3] = system: S. aureus; experiment: Antibacterial susceptibility testing: IC90 determination with 10% human serum (STA + 10% HS); assay type: cell-based, Staphylococcus aureus; details: human serum at a final concentration of 10%
Protocol: as §1, §2, §3
The results are depicted in the table D2 below (STA+10% HS).

[4] = system: Human HelaM cells; experiment: Cytotoxicity MTT assay (TOX HELAM); assay type: cell-based; details: 72 hours
Protocol: Cytotoxicity of the compounds was evaluated using the MTT assay. Human HelaM cells grown in 96-well plates were exposed to serial dilutions of the tested compounds (final volume of 0.2 ml) and incubated for 72 hours at 37° C. and 5% CO2. Inhibitors are typically varied over the range of 25 to 0.8 μM. The final DMSO concentration in the assay is 0.5%. MTT (3-(4,5-Dimethylthiazol-2-yl)-2,5-diphenyltetrazolium bromide, a tetrazole) was added and reduced to purple formazan only in living cells. Solubilization of the formazan crystals was achieved by adding 100 μl 2-propanol. Cell viability was determined by measuring the absorbance of the reduced formazan, giving a purple color, at 540 nm and 690 nm. The absorbance measured at 690 nm was automatically subtracted from the absorbance at 540 nm, to eliminate the effects of non-specific absorption. The percent cytotoxicity achieved by the compounds was calculated according to standard methods. Cytotoxicity is reported as CC50, the concentration that causes a 50% reduction in cell viability.
The results are depicted in the table D2 below (TOX HELAM).

Structure (SMILES) | FabI IC50 [1] [µg/mL] | STA (361.159) IC90 [2] [µg/mL] | STA + 10% HS (361.169) IC90 [3] [µg/mL] | TOX HELAM (222.125) CC50 [4] [µg/mL]
O=C1CCc2cc(/C=C/C(=O)N3CC4C=C(c5cccnc5)CC4C3)cnc2N1 (racemic) [compound 26] | 0.41 | 1.11 | 1.11 | >3.8646
O=C1CCc2cc(/C=C/C(=O)N3C[C@H]4CC(c5ccccc5)=C[C@H]4C3)cnc2N1 (single isomer, unassigned) [compound 13] | 0.39 | 0.31 | 0.43 | >9.683
O=C1CCc2cc(/C=C/C(=O)N3C[C@H]4CC(c5ccncc5)=C[C@H]4C3)cnc2N1 (single isomer, unassigned) [compound 40] | 0.39 | – | – | –
O=C1CCc2cc(/C=C/C(=O)N3CC4C=C(c5cccs5)CC4C3)cnc2N1 (stereo not drawn) [compound 3] | 0.29 | 0.03 | 0.06 | >3.256
O=C1CCc2cc(/C=C/C(=O)N3C[C@@H]4CN(c5cccs5)C[C@@H]4C3)cnc2N1 [compound 4] | 0.70 | – | – | –
O=C1CCc2cc(/C=C/C(=O)N3C[C@H]4CN(Cc5cccs5)C[C@H]4C3)cnc2N1 [compound 6] | 3.73 | – | – | –
COc1ccccc1N1C[C@H]2CN(C(=O)/C=C/c3cnc4c(c3)CCC(=O)N4)C[C@H]2C1 [compound 8] | 0.50 | 1.15 | 1.52 | >10.5122
O=C1CCc2cc(/C=C/C(=O)N3CC4C=C(c5ccccc5Cl)CC4C3)cnc2N1 (stereo not drawn) [compound 9] | 0.75 | 0.33 | 0.69 | 4.77
Cc1ccccc1C1=CC2CN(C(=O)/C=C/c3cnc4c(c3)CCC(=O)N4)CC2C1 (stereo not drawn) [compound 11] | 0.48 | 0.37 | 1.76 | 6.19
Cn1nccc1C1=CC2CN(C(=O)/C=C/c3cnc4c(c3)CCC(=O)N4)CC2C1 (stereo not drawn) [compound 15] | 0.48 | 0.74 | 0.72 | >9.783
Cc1ccccc1N1C[C@H]2CN(C(=O)/C=C/c3cnc4c(c3)CCC(=O)N4)C[C@H]2C1 [compound 17] | 0.38 | 0.37 | 0.38 | >10.1103
O=C1CCc2cc(/C=C/C(=O)N3C[C@@H]4CN(c5ccccc5Cl)C[C@@H]4C3)cnc2N1 [compound 18] | 0.44 | 0.21 | 0.37 | >10.6233
O=C1CCc2cc(/C=C/C(=O)N3CC4C=C(c5ccco5)CC4C3)cnc2N1 (stereo not drawn) [compound 19] | ~0.62 | 0.18 | 0.12 | >9.43
O=C1CCc2cc(/C=C/C(=O)N3C[C@@H]4CN(c5cccnc5)C[C@@H]4C3)cnc2N1 [compound 20] | 1.07 | – | – | –
O=C1CCc2cc(/C=C/C(=O)N3CC4C=C(c5ccccc5F)CC4C3)cnc2N1 (stereo not drawn) [compound 21] | 0.65 | 0.13 | 0.29 | >4.0346
N#Cc1ccccc1C1=CC2CN(C(=O)/C=C/c3cnc4c(c3)CCC(=O)N4)CC2C1 (stereo not drawn) [compound 23] | 0.41 | 0.67 | 0.79 | >10.3108
O=C1CCc2cc(/C=C/C(=O)N3C[C@@H]4CN(c5nccs5)C[C@@H]4C3)cnc2N1 [compound 24] | 0.58 | 4.05 | 2.44 | >3.9549
Cn1cc(C2=CC3CN(C(=O)/C=C/c4cnc5c(c4)CCC(=O)N5)CC3C2)cn1 (stereo not drawn) [compound 27] | 0.6 | – | – | –
